Test results published in patent publication US11203571B2, “Sulfonamides as modulators of sodium channels” (VERTEX PHARMACEUTICALS INCORPORATED, priority 2013, dated 2021).

Tests used:
human Nav1.8 = human Nav1.8 (Homo sapiens (Human), UniProt Q9Y5Y9); assay: E-VIPR optical membrane potential assay with electrical stimulation; assay type: cell-based; conditions: HEK cells expressing human Nav1.8
Text: E-VIPR Optical Membrane Potential Assay Method with Electrical Stimulation
Sodium channels are voltage-dependent proteins that can be activated by inducing membrane voltage changes by applying electric fields. The electrical stimulation instrument and methods of use are described in Ion Channel Assay Methods PCT/US01/21652, herein incorporated by reference and are referred to as E-VIPR. The instrument comprises a microtiter plate handler, an optical system for exciting the coumarin dye while simultaneously recording the coumarin and oxonol emissions, a waveform generator, a current- or voltage-controlled amplifier, and a device for inserting electrodes in well. Under integrated computer control, this instrument passes user-programmed electrical stimulus protocols to cells within the wells of the microtiter plate.
24 hours before the assay on E-VIPR, HEK cells expressing human Nav1.8 were seeded in 384-well poly-lysine coated plates at 15,000-20,000 cells per well. HEK cells were grown in media (exact composition is specific to each cell type and NaV subtype) supplemented with 10% FBS (Fetal Bovine Serum, qualified; GibcoBRL #16140-071) and 1% Pen-Strep (Penicillin-Streptomycin; GibcoBRL #15140-122). Cells were grown in vented cap flasks, in 90% humidity and 5% CO2.
• 100 mg/mL Pluronic F-127 (Sigma #P2443), in dry DMSO • Compound Plates: 384-well round bottom plate, e.g. Corning 384-well Polypropylene Round Bottom #3656 • Cell Plates: 384-well tissue culture treated plate, e.g. Greiner #781091-1B • 10 mM DiSBAC6(3) (Aurora #00-100-010) in dry DMSO • 10 mM CC2-DMPE (Aurora #00-100-008) in dry DMSO • 200 mM ABSC1 in H20
Bath1 buffer: Glucose 10 mM (1.8 g/L), Magnesium Chloride (Anhydrous), 1 mM (0.095 g/L), Calcium Chloride, 2 mM (0.222 g/L), HEPES 10 mM (2.38 g/L), Potassium Chloride, 4.5 mM (0.335 g/L), Sodium Chloride 160 mM (9.35 g/L).
Hexyl Dye Solution: Bath1 Buffer+0.5% β-cyclodextrin (make this prior to use, Sigma #C4767), 8 μM CC2-DMPE+2.5 μM DiSBAC6(3). To make the solution Added volume of 10% Pluronic F127 stock equal to volumes of CC2-DMPE+DiSBAC6(3). The order of preparation was first mix Pluronic and CC2-DMPE, then added DiSBAC6(3) while vortexing, then added Bath1+β-Cyclodextrin.
1) Pre-spotted compounds (in neat DMSO) into compound plates. Vehicle control (neat DMSO), the positive control (20 mM DMSO stock tetracaine, 125 μM final in assay) and test compounds were added to each well at 160× desired final concentration in neat DMSO. Final compound plate volume was 80 μL (80-fold intermediate dilution from 1 μL DMSO spot; 160-fold final dilution after transfer to cell plate). Final DMSO concentration for all wells in assay was 0.625%.
2) Prepared Hexyl Dye Solution.
3) Prepared cell plates. On the day of the assay, medium was aspirated and cells were washed three times with 100 μL of Bath1 Solution, maintaining 25 μL residual volume in each well.
4) Dispensed 25 μL per well of Hexyl Dye Solution into cell plates. Incubated for 20-35 minutes at room temp or ambient conditions.
5) Dispensed 80 μL per well of Bath1 into compound plates. Acid Yellow-17 (1 mM) was added and Potassium Chloride was altered from 4.5 to 20 mM depending on the NaV subtype and assay sensitivity.
6) Washed cell plates three times with 100 μL per well of Bath1, leaving 25 μL of residual volume. Then transferred 25 uL per well from Compound Plates to Cell Plates. Incubated for 20-35 minutes at room temp/ambient condition.
7) Read Plate on E-VIPR. Used the current-controlled amplifier to deliver stimulation wave pulses for 10 seconds and a scan rate of 200 Hz. A pre-stimulus recording was performed for 0.5 seconds to obtain the un-stimulated intensities baseline. The stimulatory waveform was followed by 0.5 seconds of post-stimulation recording to examine the relaxation to the resting state.
Data was analyzed and reported as normalized ratios of emission intensities measured in the 460 nm and 580 nm channels. […]

[1] = Human liver microsome assay; assay type: in vitro ADME; conditions: 1 uM substrate, 0.5 mg/mL liver microsome, 2 mM NADPH, 37° C., referenced against time zero control
Experimental: Human Liver Microsome Assay Protocol
Liver microsomal stability data were generated as follows. Substrates were incubated at 37° C. and shaken for 30 minutes in a phosphate buffered solution with human liver microsomes and the cofactor NADPH. A time zero control was similarly prepared, however with NADPH excluded. The final incubation concentrations were 1 uM substrate (0.2% DMSO), 0.5 mg/mL liver microsome, 2 mM NADPH, and 0.1 M phosphate. Reactions were quenched and proteins precipitated with the addition of 2 volume equivalents of ice cold acetonitrile containing an internal standard. Following a centrifugation step, aliquots from the quenched incubations were further diluted with 4 volume equivalents of a 50% aqueous methanol solution and then subjected to LC/MS/MS analysis for quantitation of parent substrate. Microsome stability values were calculated as the percent of substrate remaining after 30 minutes referenced against the time zero control.

Chain of human Nav1.8 (Q9Y5Y9 whole entry): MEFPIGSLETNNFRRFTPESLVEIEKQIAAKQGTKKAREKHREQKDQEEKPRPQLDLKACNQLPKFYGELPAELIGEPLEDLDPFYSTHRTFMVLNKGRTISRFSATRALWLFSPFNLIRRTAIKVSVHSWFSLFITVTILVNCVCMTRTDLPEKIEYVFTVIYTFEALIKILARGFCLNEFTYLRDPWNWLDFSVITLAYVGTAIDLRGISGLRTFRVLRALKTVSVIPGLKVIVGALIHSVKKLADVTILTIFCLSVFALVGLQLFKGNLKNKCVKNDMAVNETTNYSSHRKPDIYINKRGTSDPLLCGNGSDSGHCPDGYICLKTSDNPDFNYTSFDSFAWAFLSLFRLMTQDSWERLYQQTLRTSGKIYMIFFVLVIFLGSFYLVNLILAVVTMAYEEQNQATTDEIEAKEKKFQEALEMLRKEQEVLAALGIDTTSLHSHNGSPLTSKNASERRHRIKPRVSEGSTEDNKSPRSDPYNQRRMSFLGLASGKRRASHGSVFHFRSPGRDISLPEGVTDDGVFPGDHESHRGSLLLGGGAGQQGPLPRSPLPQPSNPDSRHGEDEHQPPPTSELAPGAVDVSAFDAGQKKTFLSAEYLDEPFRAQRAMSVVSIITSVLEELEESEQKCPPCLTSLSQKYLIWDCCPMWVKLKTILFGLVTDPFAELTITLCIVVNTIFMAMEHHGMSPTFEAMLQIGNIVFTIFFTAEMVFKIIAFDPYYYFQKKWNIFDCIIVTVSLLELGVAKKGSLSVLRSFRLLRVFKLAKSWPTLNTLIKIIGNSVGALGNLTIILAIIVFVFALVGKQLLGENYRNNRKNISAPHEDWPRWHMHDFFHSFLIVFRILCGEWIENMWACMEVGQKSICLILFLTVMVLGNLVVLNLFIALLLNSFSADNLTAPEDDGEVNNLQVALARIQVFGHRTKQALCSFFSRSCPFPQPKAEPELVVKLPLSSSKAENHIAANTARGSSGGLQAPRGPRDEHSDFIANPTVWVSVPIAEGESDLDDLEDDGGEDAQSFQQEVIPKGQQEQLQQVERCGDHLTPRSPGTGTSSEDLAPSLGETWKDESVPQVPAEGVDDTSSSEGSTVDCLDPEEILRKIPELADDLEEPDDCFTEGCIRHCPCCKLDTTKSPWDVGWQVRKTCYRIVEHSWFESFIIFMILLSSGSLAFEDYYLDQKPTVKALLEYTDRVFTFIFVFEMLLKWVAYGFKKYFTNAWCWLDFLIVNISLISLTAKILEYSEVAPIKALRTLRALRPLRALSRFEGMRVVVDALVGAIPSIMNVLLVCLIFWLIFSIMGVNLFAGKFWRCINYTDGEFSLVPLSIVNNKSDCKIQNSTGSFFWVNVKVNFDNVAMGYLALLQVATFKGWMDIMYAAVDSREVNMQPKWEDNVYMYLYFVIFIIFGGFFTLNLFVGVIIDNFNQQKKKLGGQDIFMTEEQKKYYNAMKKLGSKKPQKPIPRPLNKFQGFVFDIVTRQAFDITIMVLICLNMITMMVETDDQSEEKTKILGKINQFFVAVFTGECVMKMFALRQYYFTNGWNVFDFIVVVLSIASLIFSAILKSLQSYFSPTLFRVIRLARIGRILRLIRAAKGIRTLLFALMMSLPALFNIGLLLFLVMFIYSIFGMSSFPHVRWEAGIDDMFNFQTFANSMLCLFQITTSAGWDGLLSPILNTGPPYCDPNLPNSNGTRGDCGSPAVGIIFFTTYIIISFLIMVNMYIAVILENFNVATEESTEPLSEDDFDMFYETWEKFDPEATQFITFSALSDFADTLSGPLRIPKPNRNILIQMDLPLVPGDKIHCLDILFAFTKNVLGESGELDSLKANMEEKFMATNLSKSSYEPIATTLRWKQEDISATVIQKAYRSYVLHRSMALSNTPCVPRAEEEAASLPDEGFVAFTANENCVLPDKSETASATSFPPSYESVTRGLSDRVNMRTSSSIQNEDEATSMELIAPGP

Compound	IC50 (human Nav1.8) [nM]	HLM: percent unchanged after 30 min [1] [%]
COc1ccc(Oc2ccc(C(F)(F)F)cc2C(=O)Nc2cccc(S(N)(=O)=O)c2)cc1 [Compound 22, 2-(4-methoxyphenoxy)-N-(3-sulfamoylphenyl)-5-(trifluoromethyl)benzamide]	28	88
CCOc1ccc(Oc2ccc(C(F)(F)F)cc2C(=O)Nc2cccc(S(N)(=O)=O)c2)cc1 [Compound 23, 2-(4-ethoxyphenoxy)-N-(3-sulfamoylphenyl)-5-(trifluoromethyl)benzamide]	14	75
NS(=O)(=O)c1cccc(NC(=O)c2cc(C(F)(F)F)ccc2Oc2ccc(Cl)cc2)c1 [Compound 24, 2-(4-chlorophenoxy)-N-(3-sulfamoylphenyl)-5-(trifluoromethyl)benzamide]	30	102
Cc1cc(F)ccc1Oc1ccc(C(F)(F)F)cc1C(=O)Nc1cccc(S(N)(=O)=O)c1 [Compound 25, 2-(4-fluoro-2-methylphenoxy)-N-(3-sulfamoylphenyl)-5-(trifluoromethyl)benzamide]	4	94
NS(=O)(=O)c1cccc(NC(=O)c2cc(C(F)(F)F)ccc2Oc2ccc(F)cc2Cl)c1 [Compound 26, 2-(2-chloro-4-fluorophenoxy)-N-(3-sulfamoylphenyl)-5-(trifluoromethyl)benzamide]	4	119
COc1cc(F)ccc1Oc1ccc(C(F)(F)F)cc1C(=O)Nc1cccc(S(N)(=O)=O)c1 [Compound 27, 2-(4-fluoro-2-methoxyphenoxy)-N-(3-sulfamoylphenyl)-5-(trifluoromethyl)benzamide]	6	101
COc1ccc(Oc2ccc(C(F)(F)F)cc2C(=O)Nc2cccc(S(N)(=O)=O)c2)cc1F [Compound 28, 2-(3-fluoro-4-methoxyphenoxy)-N-(3-sulfamoylphenyl)-5-(trifluoromethyl)benzamide]	16	92
COc1c(F)cccc1Oc1ccc(C(F)(F)F)cc1C(=O)Nc1cccc(S(N)(=O)=O)c1 [Compound 29, 2-(3-fluoro-2-methoxyphenoxy)-N-(3-sulfamoylphenyl)-5-(trifluoromethyl)benzamide]	5	100
Cc1cc(Cl)ccc1Oc1ccc(C(F)(F)F)cc1C(=O)Nc1cccc(S(N)(=O)=O)c1 [Compound 30, 2-(4-chloro-2-methylphenoxy)-N-(3-sulfamoylphenyl)-5-(trifluoromethyl)benzamide]	9	103
COc1ccc(Oc2ccc(C(F)(F)F)cc2C(=O)Nc2cccc(S(N)(=O)=O)c2)c(Cl)c1 [Compound 31, 2-(2-chloro-4-methoxyphenoxy)-N-(3-sulfamoylphenyl)-5-(trifluoromethyl)benzamide]	6	82
Cc1ccccc1Oc1ccc(C(F)(F)F)cc1C(=O)Nc1cccc(S(N)(=O)=O)c1 [Compound 32, N-(3-sulfamoylphenyl)-2-(o-tolyloxy)-5-(trifluoromethyl)benzamide]	8	76
NS(=O)(=O)c1cccc(NC(=O)c2c(Oc3ccc(F)cc3Cl)cccc2C(F)(F)F)c1 [Compound 33, 2-(2-chloro-4-fluorophenoxy)-N-(3-sulfamoylphenyl)-6-(trifluoromethyl)benzamide]	5	102
COc1ccccc1Oc1ccc(C(F)(F)F)cc1C(=O)Nc1cccc(S(N)(=O)=O)c1 [Compound 34, 2-(2-methoxyphenoxy)-N-(3-sulfamoylphenyl)-5-(trifluoromethyl)benzamide]	14	96
COc1cc(Cl)ccc1Oc1ccc(C(F)(F)F)cc1C(=O)Nc1cccc(S(N)(=O)=O)c1 [Compound 35, 2-(4-chloro-2-methoxyphenoxy)-N-(3-sulfamoylphenyl)-5-(trifluoromethyl)benzamide]	5	82
COc1ccc(Oc2ccc(C(F)(F)F)cc2C(=O)Nc2cccc(S(N)(=O)=O)c2)c(OC)c1 [Compound 36, 2-(2,4-dimethoxyphenoxy)-N-(3-sulfamoylphenyl)-5-(trifluoromethyl)benzamide]	4	66
CC(C)Oc1ccc(Oc2ccc(C(F)(F)F)cc2C(=O)Nc2cccc(S(N)(=O)=O)c2)cc1 [Compound 37, 2-(4-isopropoxyphenoxy)-N-(3-sulfamoylphenyl)-5-(trifluoromethyl)benzamide]	6	76
Cc1cccc(Oc2ccc(F)cc2Cl)c1C(=O)Nc1cccc(S(N)(=O)=O)c1 [Compound 38, 2-(2-chloro-4-fluorophenoxy)-6-methyl-N-(3-sulfamoylphenyl)benzamide]	14	105
NS(=O)(=O)c1cccc(NC(=O)c2cc(C(F)(F)F)ccc2Oc2ccc(OC(F)(F)F)cc2)c1 [Compound 39, N-(3-sulfamoylphenyl)-2-(4-(trifluoromethoxy)phenoxy)-5-(trifluoromethyl)benzamide]	10	104
NS(=O)(=O)c1cccc(NC(=O)c2cc(C(F)F)ccc2Oc2ccc(F)cc2Cl)c1 [Compound 40, 2-(2-chloro-4-fluorophenoxy)-5-(difluoromethyl)-N-(3-sulfamoylphenyl)benzamide]	7	107
NS(=O)(=O)c1cccc(NC(=O)c2cc(C(F)(F)F)ccc2Oc2ccc(OC(F)F)cc2)c1 [Compound 41, 2-(4-(difluoromethoxy)phenoxy)-N-(3-sulfamoylphenyl)-5-(trifluoromethyl)benzamide]	22	95
COc1cc(Cl)ccc1Oc1cc(C(F)(F)F)ccc1C(=O)Nc1cccc(S(N)(=O)=O)c1 [Compound 42, 2-(4-chloro-2-methoxyphenoxy)-N-(3-sulfamoylphenyl)-4-(trifluoromethyl)benzamide]	10	84
COc1ccc(Oc2cc(C(F)(F)F)ccc2C(=O)Nc2cccc(S(N)(=O)=O)c2)cc1F [Compound 43, 2-(3-fluoro-4-methoxyphenoxy)-N-(3-sulfamoylphenyl)-4-(trifluoromethyl)benzamide]	21	90
COc1ccccc1Oc1cc(C(F)(F)F)ccc1C(=O)Nc1cccc(S(N)(=O)=O)c1 [Compound 44, 2-(2-methoxyphenoxy)-N-(3-sulfamoylphenyl)-4-(trifluoromethyl)benzamide]	20	79
